From patent publication US12324813B2, “Method and pharmaceutical composition for rescuing retinal degeneration” (Taipei Veterans General Hospital, priority 2023, dated 2025)
“Also recorded” adds a separate entry of the source.

What was measured:
[1] = system: ARPE-19 cells; assay: Immunoblotting analysis of treated ARPE-19 cells; type: cell-based
Protocol: Cells were treated with the autophagy inhibitor Bafilomycin A1 (Sigma, Saint Louis, MO, USA) at 75 nM or DUSP6 inhibitor BCI (Sigma, Saint Louis, MO, USA) at 1.25 μM or 2.5 μM for 6 h at 37° C. Proteins were collected after treatment for further study. C57BL/6N mice were sacrificed and their eyes were collected. The excess muscle tissue outside the sclera was removed and then a needle was used to make a hole in the cornea then remove the whole cornea. Next, we eliminated the lens and retina, and finally lysed the remaining tissue RIPA buffer (10× Merck Millipore, Temecula, CA, USA) containing with 1% protease inhibitor. Meanwhile, in vitro ARPE-19 cells were collected and lysed with RIPA buffer containing with 1% protease inhibitor. Subsequently, cell lysates were centrifuged for 10 min at 4° C. and the supernatants were collected. Next, the protein concentrations were measured via the BCA Protein Quantification Kit. An equal weight of total protein was separated by electrophoresis on SDS/PAGE. After the proteins were transferred onto polyvinylidene difluoride (PVDF) membranes (Millipore, Bedford, MA, USA), the membranes were incubated with blocking buffer (1×TBST and 5% skim milk) for 1 h at room temperature. After the blocking step, the membranes were incubated with the following primary antibodies at 4° C. overnight: DUSP6 (Abcam, Cambridge, UK), Phospho-ERK1/2 (Cell Signaling, Danvers, MA, USA), ERK1/2 (Cell Signaling, Danvers, MA, USA), LC3B (Novus, Centennial, CO, USA), SQSTM1/p62 (Abcam, Cambridge, UK), LAMP2 (Abcam, Cambridge, UK), Beclin-1 (Cell Signaling, Danvers, MA, USA), and Bactin (Sigma, Saint Louis, MO, USA). Next, membranes were washed three times with TBST and incubated with HRP-conjugated secondary antibodies including Goat anti-mouse IgG (Invitrogen, Carlsbad, CA, USA) and Goat anti-rabbit IgG (Invitrogen, Carlsbad, CA, USA) for 1 h at RT. The antigen-antibody complexes were detected by an enhanced chemiluminescence (ECL) substrate kit (Bioman, Millipore, Bedford, MA, USA). Bands were analyzed and quantified by the ImageJ (NIH, Bethesda, MD, USA) analysis software.

[2] = system: ARPE-19 cells; assay: Immunocytochemistry / immunofluorescence staining of ARPE-19 cells; type: cell-based
Protocol: In vitro, the cells were seeded in 24-well plates at a density of 2×10^5 per well and incubated at 37° C. with 5% CO2 for 24 h. […] After rinsing three times with PBS, the cells were permeabilized and blocked with a blocking solution (0.3% BSA and 0.1% Triton X-100 in PBS) at room temperature for 1 h. After blocking, cells were incubated with primary antibodies overnight at 4° C. The primary antibodies include DUSP6 (Abcam, Cambridge, UK), Phospho-ERK1/2 (Cell Signaling, Danvers, MA, USA), LC3B (Novus, Centennial, CO, USA), and SQSTM1/p62 (Abcam, Cambridge, UK). After incubation, cells were washed three times with PBST (0.1% Triton X-100 in PBS). Secondary antibodies (1:700) were applied for 3 h at room temperature. The secondary antibodies include IgG Alexa 488 goat anti-rabbit IgG and Alexa 594 goat anti-mouse IgG. Nuclei were stained with DAPI (1:1000) for 10 min at 4° C. and slides were observed by a light microscope (Olympus America, Melville, NY, USA). In vivo, the sample slices were pretreated with bleaching solution (1% NaH2PO4 and 2.5% H2O2) overnight at room temperature. Next, the primary antibodies, including DUSP6, Phospho-ERK1/2, LC3B, SQSTM1/p62, and RPE65, were incubated with the sample slices overnight at 4° C. After incubation, the samples were washed three times with PBST. Tests with secondary antibodies (1:700) were conducted for 1 h at room temperature. The secondary antibodies included IgG Alexa 488 goat anti-rabbit IgG and Alexa 594 goat anti-mouse IgG. After treating them with mounting solution, the slides were observed by a fluorescence microscope (Olympus America, Melville, NY, USA).

[3] = system: ARPE-19 cells; assay: qRT-PCR of p62 mRNA in ARPE-19 cells; type: cell-based; conditions: ARPE-19 co-treated with BCI and NaIO3 for 6 hours
Protocol: The cDNA was diluted to 200 ng/μL with sterile water and mixed with SYBR PCR Master Mix and primers. Amplification reaction was performed in a thermal cycler according to the manufacturer's instructions. mRNA abundance was quantified using the threshold cycle method. The mRNA expression of GAPDH was used as an internal control for normalization.

[4] = system: ARPE-19 cells; assay: Live imaging of GFP-LC3-RFP-LC3AG reporter in ARPE-19 cells; type: cell-based; conditions: ARPE-19, BCI under NaIO3-induced oxidative stress
Description: Furthermore, to estimate the autophagic flux in BCI-treated ARPE-19 cells, we introduced the GFP-LC3-RFP-LC3AG gene into ARPE-19 cells and monitored live images taken after BCI treatment.

[5] = system: C57BL/6N mice; assay: DUSP6 inhibitor (BCI) treatment in NaIO3-treated mice; type: in vivo
Description: Retina samples were fixed with 4% paraformaldehyde (Sigma, Saint Louis, MO, USA) overnight, followed by 1×PBS. The methodology used for fixation, dehydration, clearing, infiltration, and embedding was developed according to that of Bio-Check Laboratories. […] The morphology of the retina was observed using a light microscope (Olympus America, Melville, NY, USA). Next, the thicknesses of the retina, defined as the distance between the inner limiting membrane, Bruch's membrane, and the outer nuclear layer (ONL), were measured by Image J (NIH, Bethesda, Maryland, USA). In vitro, the cells were seeded in 24-well plates at a density of 2×10^5 per well and incubated at 37° C. with 5% CO2 for 24 h. […] After rinsing three times with PBS, the cells were permeabilized and blocked with a blocking solution (0.3% BSA and 0.1% Triton X-100 in PBS) at room temperature for 1 h. After blocking, cells were incubated with primary antibodies overnight at 4° C. The primary antibodies include DUSP6 (Abcam, Cambridge, UK), Phospho-ERK1/2 (Cell Signaling, Danvers, MA, USA), LC3B (Novus, Centennial, CO, USA), and SQSTM1/p62 (Abcam, Cambridge, UK). After incubation, cells were washed three times with PBST (0.1% Triton X-100 in PBS). Secondary antibodies (1:700) were applied for 3 h at room temperature. The secondary antibodies include IgG Alexa 488 goat anti-rabbit IgG and Alexa 594 goat anti-mouse IgG. Nuclei were stained with DAPI (1:1000) for 10 min at 4° C. and slides were observed by a light microscope (Olympus America, Melville, NY, USA). In vivo, the sample slices were pretreated with bleaching solution (1% NaH2PO4 and 2.5% H2O2) overnight at room temperature. Next, the primary antibodies, including DUSP6, Phospho-ERK1/2, LC3B, SQSTM1/p62, and RPE65, were incubated with the sample slices overnight at 4° C. After incubation, the samples were washed three times with PBST. Tests with secondary antibodies (1:700) were conducted for 1 h at room temperature. The secondary antibodies included IgG Alexa 488 goat anti-rabbit IgG and Alexa 594 goat anti-mouse IgG. After treating them with mounting solution, the slides were observed by a fluorescence microscope (Olympus America, Melville, NY, USA). […] The structure of the retina was analyzed by real-time images and H & E staining. Proteins were collected from retina for further study.

[6] = NaIO3 30 mg/kg i.p. then BCI 0.5 mg/kg intravitreal
[7] = NaIO3-treated ARPE-19 cells with Baf-A1 75 nM

In the case of `Cl.O=C1/C(=C/c2ccccc2)C(NC2CCCCC2)c2ccccc21` (mixture of isomers) [BCI, (E/Z)-BCI hydrochloride], the “p-ERK/ERK ratio (ERK activity)” value ([1]; NaIO3-treated ARPE-19, BCI 1.25 and 2.5 μM, 6 h) is reported as “significantly increased in NaIO3-treated cells after BCI treatment in a dose-dependent manner”, the “autophagic markers (immunoblotting)” value ([1]; NaIO3-treated ARPE-19, BCI 1.25 and 2.5 μM, hydrochloride) is reported as “upregulation of autophagic markers upon BCI treatment in a dose-dependent manner; also recorded: also upregulated” and the “autophagosomes (fluorescence images)” value ([2]; ARPE-19, BCI 1.25 μM, oxidative conditions) is reported as “aggregation of autophagosomes”. For the same molecule, the “speckles of p-ERK” value ([2]; ARPE-19, BCI with or without NaIO3) was “increased after BCI treatment, despite the presence or absence of NaIO3”, the “perinuclear p62 punctate” value ([2]; ARPE-19 co-treated with NaIO3 and BCI) was “significantly upregulated” and the “cell-cell junction (tight junction marker ZO-1)” value ([2]; RPE cells, NaIO3 vs control, BCI co-treatment) was “rescue the cell-cell junction”. For the same molecule, the “p62 mRNA level” value [3] was “upregulated”, the “GFP / RFP LC3 signal (late-stage autophagy)” value [4] was “GFP-positive signal being shifted to an RFP-positive signal” and the “ONL disorganization (H & E)” value ([5]; BCI 0.5 mg/kg intravitreal in presence of NaIO3-induced oxidative stress) was “alleviated”. The ONL thickness ([5]; BCI group vs NaIO3 group) was “restored the ONL thickness”, the “melanin deposition on the retina” value ([5]; BCI group vs mice treated with NaIO3 only) was “significantly reduced” and the “co-localization of LC3B and p62 between the ONL and RPE layers” value [5, 6] was “excessive co-localization”. The “phosphorylated ERK speckles around the ONL and RPE layers” value [5, 6] was “dramatically enhanced” and the “accumulation of p62 in mouse retinas” value ([5]; mouse retinas treated with BCI) was “significantly decreased”.

With `CO/C1=C\C(C)=C\[C@@H](C)[C@@H](O)[C@@H](C)C/C(C)=C/C=C/[C@H](OC)[C@@H]([C@@H](C)[C@@H](O)[C@H](C)[C@@]2(O)C[C@@H](O)[C@H](C)[C@@H](C(C)C)O2)OC1=O` [Baf-A1, Bafilomycin A1] the LC3B-II expression [1, 7] was “increase in LC3B-II expression in a dose-dependent manner” and the p62 expression levels [1, 7] was “remained unchanged”.
